Assays:
[1] = target: CYP3A4 (Homo sapiens, UniProt P08684); assay: In vitro clearance
[2] = Mass balance, single PO dose of 300 mg 14C-GNX in healthy male volunteers; assay type: in vivo; settings: human, plasma
Text: The total plasma radioactivity concentrations achieved were much higher than GNX plasma levels in clinical studies with non-labelled GNX. […] Approximately 80% of the total radioactivity was excreted in faeces and urine by Day 14. […] PK parameters (mean±SD) of ^14C-GNX-derived total radioactivity in Healthy Male Volunteers (Study No. CA042 9402.01 [n=5]) are summarized in Table 22.

[3] = target: human ether-a-go-go related gene (hERG) receptor (Homo sapiens, UniProt Q12809); assay: hERG safety pharmacology; assay type: binding; settings: measured concentration of 70 nM (n=2)
Protocol: Safety pharmacology studies were conducted with ganaxalone.

[4] = tested on: subjects with focal onset seizure disorder; settings: post hoc, subjects taking 3 or more concomitant AEDs, p=0.02; cited from earlier work
[5] = tested on: children with rare genetic epilepsies; assay: Phase 2 open-label trial, safety, tolerability and disposition; assay type: in vivo, human
Text: Example 3 concerns a Phase 2 Multicenter, Open-Label Proof-of-Concept Trial of ganaxolone (GNX) in cohorts of children having genetic epilepsies (PCDH19, CDKL5 LGS, and CSWS) (ClinicalTrials.gov Identifier: NCT02358538). There were 11 female children with PCDH19 epilepsy between 5-16 years old with a confirmed genetic mutation. There were 6 female and 1 male children with confirmed genetic mutations in the CDKL5 cohort. There were 10 children in the Lennox Gastaut Syndrome cohort. Two children with CSWS were enrolled into the study. The study was conducted with 12 weeks baseline, and up to 26 weeks of treatment followed by a 52 week open label treatment. The primary efficacy was the percentage change in seizure frequency per 28 days relative to baseline calculated using daily seizure diary. [Time Frame: 26 weeks]. Secondary Outcome Measures were: Clinician Global Impression of Change score as assessed by questionnaire. [Time Frame: 26 Weeks]; Patient Global Impression of Change score as assessed by questionnaire. [Time Frame: 26 Weeks]; Evaluation of safety and tolerability of open-label ganaxolone as adjunctive therapy for uncontrolled seizures in children with rare genetic epilepsies, based on adverse event log and other clinical safety assessments. [Time Frame: 26 weeks]; Responder rates [Time Frame: 26 weeks]; and Seizure free days [Time Frame: 26 weeks].
Following screening and baseline evaluations, consenting patients enrolled into a 26-week study during which investigators were allowed to flexibly dose ganaxolone up to a dose of 1,800 mg/day for patients whose body weight was >30 kg, or up to 63 mg/kg/day for patients whose body-weight was <30 kg. The primary efficacy measure is % change from baseline in the 28-day seizure frequency count. Safety and tolerability were within the secondary objectives of the study.
A total of 30 subjects were enrolled in the study: one-half (15 subjects) completed the 26-week open-label treatment period and one-half (15 subjects) discontinued the study. In total, the main reasons for study discontinuation in the safety population were lack of efficacy (8 subjects [26.7%]), and AE or SAE (4 subjects [13.3%)]). All 30 (100.0%) subjects were in the safety and MITT population.
Ganaxolone was generally safe and well-tolerated in subjects with epilepsy disorders. […] In the CDD cohort, 6 subjects (85.7%) experienced a total of 45 TEAEs; in the CSWS cohort, 1 subject (50.0%) had 7 TEAEs; in the LGS cohort, 7 subjects (70.0%) had 24 TEAEs; and in the PCDH19 cohort, 11 subjects (100.0%) had 95 TEAEs.
No deaths were reported in this study.

Sequence of CYP3A4 (P08684 whole entry): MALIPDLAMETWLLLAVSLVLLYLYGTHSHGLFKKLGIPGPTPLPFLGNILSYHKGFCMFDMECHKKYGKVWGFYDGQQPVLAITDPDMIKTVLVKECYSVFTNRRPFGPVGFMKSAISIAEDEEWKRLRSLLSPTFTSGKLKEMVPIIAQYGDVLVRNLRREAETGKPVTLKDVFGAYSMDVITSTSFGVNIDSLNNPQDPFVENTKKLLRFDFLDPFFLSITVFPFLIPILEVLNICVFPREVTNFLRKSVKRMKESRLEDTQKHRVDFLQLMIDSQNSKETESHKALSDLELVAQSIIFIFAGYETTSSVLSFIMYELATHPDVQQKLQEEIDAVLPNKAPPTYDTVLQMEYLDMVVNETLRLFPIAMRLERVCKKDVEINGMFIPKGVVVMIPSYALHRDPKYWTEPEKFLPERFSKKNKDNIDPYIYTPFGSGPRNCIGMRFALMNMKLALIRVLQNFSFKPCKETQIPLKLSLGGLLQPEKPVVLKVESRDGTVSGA
Sequence of human ether-a-go-go related gene (hERG) receptor (Q12809 whole entry): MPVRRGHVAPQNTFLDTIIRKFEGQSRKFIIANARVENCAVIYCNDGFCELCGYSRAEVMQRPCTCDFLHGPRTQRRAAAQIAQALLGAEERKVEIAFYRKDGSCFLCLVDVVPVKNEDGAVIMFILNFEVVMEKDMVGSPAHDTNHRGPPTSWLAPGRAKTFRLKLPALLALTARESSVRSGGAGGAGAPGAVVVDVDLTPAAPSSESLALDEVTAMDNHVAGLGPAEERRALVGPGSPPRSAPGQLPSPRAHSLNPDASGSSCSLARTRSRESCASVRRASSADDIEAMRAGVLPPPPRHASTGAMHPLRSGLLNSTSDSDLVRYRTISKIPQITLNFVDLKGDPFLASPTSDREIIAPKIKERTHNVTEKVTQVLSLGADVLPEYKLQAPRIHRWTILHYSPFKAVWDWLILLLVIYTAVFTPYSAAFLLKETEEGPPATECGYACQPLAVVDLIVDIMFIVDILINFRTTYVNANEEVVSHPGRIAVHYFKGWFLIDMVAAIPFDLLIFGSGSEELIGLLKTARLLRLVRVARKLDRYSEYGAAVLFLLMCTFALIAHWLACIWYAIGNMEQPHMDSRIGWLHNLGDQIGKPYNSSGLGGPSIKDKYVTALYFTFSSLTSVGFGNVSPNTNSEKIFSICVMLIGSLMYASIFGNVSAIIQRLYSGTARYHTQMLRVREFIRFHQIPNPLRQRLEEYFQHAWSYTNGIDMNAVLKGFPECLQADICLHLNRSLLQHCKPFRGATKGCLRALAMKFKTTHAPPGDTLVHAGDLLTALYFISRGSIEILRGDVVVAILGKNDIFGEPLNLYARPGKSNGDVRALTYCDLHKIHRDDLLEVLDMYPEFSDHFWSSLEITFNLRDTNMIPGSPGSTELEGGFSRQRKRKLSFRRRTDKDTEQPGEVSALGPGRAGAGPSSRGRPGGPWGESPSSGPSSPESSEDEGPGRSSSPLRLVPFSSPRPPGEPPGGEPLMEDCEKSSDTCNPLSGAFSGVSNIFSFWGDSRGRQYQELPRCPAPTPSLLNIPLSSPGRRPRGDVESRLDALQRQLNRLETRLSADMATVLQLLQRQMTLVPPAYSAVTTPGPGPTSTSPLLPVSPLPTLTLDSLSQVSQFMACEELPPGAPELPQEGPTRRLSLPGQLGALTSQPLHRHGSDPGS

Q: Which Enzyme driving clearance [1] does the source give for `CC(=O)[C@H]1CC[C@H]2[C@@H]3CC[C@H]4C[C@](C)(O)CC[C@]4(C)[C@H]3CC[C@]12C` [Ganaxolone, 3α-hydroxy-3β-methyl-5α-pregnan-20-one] here?
A: driven mainly by CYP3A4

Q: And the Half-life [2]?
A: ~25 h

Q: And the “Interaction with hERG receptor” value [3]?
A: did not interact

Q: What about the “Greater reduction in median seizure frequency than placebo” value [4] of the same molecule?
A: 20%

Q: What about the “Total number of TEAEs” value ([5]; CDD cohort) of the same molecule?
A: 45 TEAEs

Q: And the “Subjects experiencing TEAEs” value ([5]; CDD cohort, safety population)?
A: 85.7%

Q: And the “Discontinued during the 26-week open-label period, reason AE or SAE” value ([5]; CDKL5 N = 7)?
A: 0 n (%)

Q: What about the “Discontinued during the 26-week open-label period, reason lack of efficacy” value ([5]; CDKL5 N = 7) of the same molecule?
A: 1 n (%)

Q: And the “Discontinued during the 26-week open-label period, reason AE or SAE” value ([5]; CSWS N = 2)?
A: 1 n (%)

Q: What about the “Discontinued during the 26-week open-label period, reason lack of efficacy” value ([5]; CSWS N = 2) of the same molecule?
A: 1 n (%)

Q: What about the “Subjects experiencing TEAEs” value ([5]; CSWS cohort) of the same molecule?
A: 50.0%

Q: And the “Total number of TEAEs” value ([5]; CSWS cohort)?
A: 7 TEAEs

Q: What about the “Discontinued during the 26-week open-label period, reason AE or SAE” value ([5]; LGS N = 10) of the same molecule?
A: 1 (10.0) n (%)

Q: What about the “Discontinued during the 26-week open-label period, reason lack of efficacy” value ([5]; LGS N = 10) of the same molecule?
A: 3 (30.0) n (%)

Q: What about the “Subjects experiencing TEAEs” value ([5]; LGS cohort) of the same molecule?
A: 70.0%

Q: And the “Total number of TEAEs” value ([5]; LGS cohort)?
A: 24 TEAEs

Q: And the “Adverse event: Abdominal pain” value ([5]; PCDH19 N = 11)?
A: 2 (18.2) N (%)

Q: And the “Adverse event: Fatigue” value ([5]; PCDH19 N = 11)?
A: 3 (27.3) N (%)

Q: What about the “Adverse event: Headache” value ([5]; PCDH19 N = 11) of the same molecule?
A: 3 (27.3) N (%)

Q: What about the “Adverse event: Pyrexia” value ([5]; PCDH19 N = 11) of the same molecule?
A: 2 (18.2) N (%)

Q: What about the “Adverse event: Seizure” value ([5]; PCDH19 N = 11) of the same molecule?
A: 3 (27.3) N (%)

Q: And the “Adverse event: Somnolence” value ([5]; PCDH19 N = 11)?
A: 4 (36.4) N (%)

Q: And the “Adverse event: Vomiting” value ([5]; PCDH19 N = 11)?
A: 2 (18.2) N (%)

Q: What about the “Discontinued during the 26-week open-label period, reason AE or SAE” value ([5]; PCDH19 N = 11) of the same molecule?
A: 2 n (%)

Q: What about the “Discontinued during the 26-week open-label period, reason lack of efficacy” value ([5]; PCDH19 N = 11) of the same molecule?
A: 3 n (%)

Q: And the “Subjects experiencing TEAEs” value ([5]; PCDH19 cohort)?
A: 100.0%

Q: And the “Total number of TEAEs” value ([5]; PCDH19 cohort)?
A: 95 TEAEs

Q: What about the “Discontinued during the 26-week open-label period, reason AE or SAE” value ([5]; Total N = 30) of the same molecule?
A: 4 n (%)

Q: What about the “Discontinued during the 26-week open-label period, reason lack of efficacy” value ([5]; Total N = 30) of the same molecule?
A: 8 n (%)

Q: And the Deaths ([5]; all cohorts)?
A: No deaths

Q: What about the “Subjects experiencing SAEs” value ([5]; all cohorts, N=30) of the same molecule?
A: 20.0%

Q: What about the “Subjects overall experiencing TEAEs” value ([5]; all cohorts, N=30) of the same molecule?
A: 83.3%

Q: And the “Subjects with a TEAE that led to discontinuation of study drug” value ([5]; all cohorts, N=30)?
A: 13.3%

Q: What about the “Subjects with mild TEAEs” value ([5]; all cohorts, N=30) of the same molecule?
A: 23.3%

Q: What about the “Subjects with moderate TEAEs” value ([5]; all cohorts, N=30) of the same molecule?
A: 46.7%

Q: What about the “Subjects with severe TEAEs” value ([5]; all cohorts, N=30) of the same molecule?
A: 13.3%

Q: And the “Subjects with treatment-related TEAEs” value ([5]; all cohorts, N=30)?
A: 53.3%

Source: patent US20250082651A1, “GANAXOLONE FOR USE IN TREATING GENETIC EPILEPTIC DISORDERS” (Marinus Pharmaceuticals, Inc., priority 2017, published 2025)
